Experimental data reported in US20260285850A1, “SUBSTITUTED OXAZOLIDINONES AND IMIDAZOLINONES AS HERBICIDES” (FMC CORPORATION, priority 2023, published 2026).

Legend:
Type in all cases: in vivo
[1] = test system: barnyardgrass (Echinochloa crus-galli); test: Test A preemergence soil spray, visual injury rating 0-100; conditions: 10 days
Summary of the method: (§1)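 Seeds sown in loam-sand blend got a preemergence directed soil spray, or emerged plants (2-10 cm, one- to two-leaf) got a postemergence spray, of compound in non-phytotoxic solvent with surfactant. After 10 days in greenhouse, injury rated visually versus untreated controls on a 0 (no effect) to 100 (complete control) scale.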

[2] = test system: blackgrass (Alopecurus myosuroides); test: as above; conditions: 10 days
Summary of the method: as §1

corn (Zea mays) [3] = test: as above; conditions: 10 days
Summary of the method: as §1

[4] = test system: green foxtail (Setaria viridis); test: as above; conditions: 10 days
Summary of the method: as §1

kochia (Bassia scoparia) [5] = test: as above; conditions: 10 days
Summary of the method: as §1

[6] = test system: oat, wild (wild oat, Avena fatua); test: as above; conditions: 10 days
Summary of the method: as §1

[7] = test system: palmer (palmer amaranth, palmer pigweed, Amaranthus palmeri); test: as above; conditions: 10 days
Summary of the method: as §1

[8] = test system: ragweed (common ragweed, Ambrosia artemisiifolia); test: as above; conditions: 10 days
Summary of the method: as §1

[9] = test system: ryegrass, Italian (italian ryegrass, Lolium multiflorum); test: as above; conditions: 10 days
Summary of the method: as §1

soybean (Glycine max) [10] = test: as above; conditions: 10 days
Summary of the method: as §1

[11] = test system: wheat (Triticum aestivum); test: as above; conditions: 10 days
Summary of the method: as §1

[12] = test system: barnyardgrass (Echinochloa crus-galli); test: Test A postemergence application, visual injury rating 0-100
Summary of the method: as §1

[13] = test system: blackgrass (Alopecurus myosuroides); test: as above
Summary of the method: as §1

corn (Zea mays) [14] = test: as above
Summary of the method: as §1

[15] = test system: galium (catchweed bedstraw, Galium aparine); test: as above
Summary of the method: as §1

[16] = test system: green foxtail (Setaria viridis); test: as above
Summary of the method: as §1

[17] = test system: horseweed (Erigeron canadensis); test: as above
Summary of the method: as §1

kochia (Bassia scoparia) [18] = test: as above
Summary of the method: as §1

[19] = test system: oat, wild (wild oat, Avena fatua); test: as above
Summary of the method: as §1

[20] = test system: palmer (palmer amaranth, palmer pigweed, Amaranthus palmeri); test: as above
Summary of the method: as §1

[21] = test system: ragweed (common ragweed, Ambrosia artemisiifolia); test: as above
Summary of the method: as §1

[22] = test system: ryegrass, Italian (italian ryegrass, Lolium multiflorum); test: as above
Summary of the method: as §1

soybean (Glycine max) [23] = test: as above
Summary of the method: as §1

[24] = test system: wheat (Triticum aestivum); test: as above
Summary of the method: as §1

[25] = test system: barnyardgrass (Echinochloa crusgalli); test: Test B flooded paddy test, visual plant response rating 0-100; conditions: 250 g ai/ha, Flood, applied to paddy water, evaluated after 13 days
Summary of the method: (§2)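 Visual evaluation after 13 days. Water-applied treatment, 3 cm flood depth held constant, plants at 2-leaf stage at treatment.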

[26] = test system: ducksalad (Heteranthera limosa); test: as above; conditions: 250 g ai/ha, Flood, applied to paddy water, evaluated after 13 days
Summary of the method: as §2

rice (Oryza sativa) = test: as above; conditions: 250 g ai/ha, Flood, applied to paddy water, evaluated after 13 days
Summary of the method: as §2

[27] = test system: sedge, umbrella (small-flower umbrella sedge, Cyperus difformis); test: as above; conditions: 250 g ai/ha, Flood, applied to paddy water, evaluated after 13 days
Summary of the method: as §2

[28] = 62 g ai/ha, 0 = no effect, 100 = complete control
[29] = 62 g ai/ha, postemergence, 10 days, 0 = no effect, 100 = complete control
[30] = Postemergence, 16 g ai/ha, greenhouse 10 days, 0 no effect, 100 complete control

CC1(C(=O)NC2CC(C(=O)O)C2)CN(c2cc(F)cc(F)c2)C(=O)O1 (stereo not shown) [Compound 119]
Barnyardgrass plant response rating ([1]; 16 g ai/ha, 0 to 100 scale): 0
Barnyardgrass plant response rating (0-100) [1, 28]: 80
Blackgrass plant response rating ([2]; 16 g ai/ha, 0 to 100 scale): 40
Blackgrass plant response rating (0-100) [2, 28]: 80
Corn plant response rating (corn (Zea mays) [3]; 16 g ai/ha, 0 to 100 scale): 20
Corn plant response rating (0-100) (corn (Zea mays) [3]; [28]): 70
Foxtail, Green plant response rating ([4]; 16 g ai/ha, 0 to 100 scale): 20
Foxtail, Green plant response rating (0-100) [4, 28]: 90
Kochia plant response rating (kochia (Bassia scoparia) [5]; 16 g ai/ha, 0 to 100 scale): 0
Kochia plant response rating (0-100) (kochia (Bassia scoparia) [5]; [28]): 80
Oat, Wild plant response rating ([6]; 16 g ai/ha, 0 to 100 scale): 90
Oat, Wild plant response rating (0-100) [6, 28]: 90
Pigweed, Palmer plant response rating ([7]; 16 g ai/ha, 0 to 100 scale): 10
Pigweed, Palmer plant response rating (0-100) [7, 28]: 10
Ragweed plant response rating ([8]; 16 g ai/ha, 0 to 100 scale): 0
Ragweed plant response rating (0-100) [8, 28]: 0
Ryegrass, Italian plant response rating ([9]; 16 g ai/ha, 0 to 100 scale): 30
Ryegrass, Italian plant response rating (0-100) [9, 28]: 80
Soybean plant response rating (soybean (Glycine max) [10]; 16 g ai/ha, 0 to 100 scale): 0
Soybean plant response rating (0-100) (soybean (Glycine max) [10]; [28]): 20
Wheat plant response rating ([11]; 16 g ai/ha, 0 to 100 scale): 10
Wheat plant response rating (0-100) [11, 28]: 60
Barnyardgrass plant response rating (0-100) [12, 29]: 100
Barnyardgrass plant response rating (0 to 100 scale) [12, 30]: 70
Blackgrass plant response rating (0-100) [13, 29]: 100
Blackgrass plant response rating (0 to 100 scale) [13, 30]: 80
Corn plant response rating (0-100) (corn (Zea mays) [14]; [29]): 100
Corn plant response rating (0 to 100 scale) (corn (Zea mays) [14]; [30]): 100
Galium plant response rating (0-100) [15, 29]: 60
Galium plant response rating (0 to 100 scale) [15, 30]: 20
Foxtail, Green plant response rating (0-100) [16, 29]: 90
Foxtail, Green plant response rating (0 to 100 scale) [16, 30]: 70
Horseweed plant response rating (0-100) [17, 29]: 0
Horseweed plant response rating (0 to 100 scale) [17, 30]: 0
Kochia plant response rating (0-100) (kochia (Bassia scoparia) [18]; [29]): 80
Kochia plant response rating (0 to 100 scale) (kochia (Bassia scoparia) [18]; [30]): 10
Oat, Wild plant response rating (0-100) [19, 29]: 90
Oat, Wild plant response rating (0 to 100 scale) [19, 30]: 40
Pigweed, Palmer plant response rating (0-100) [20, 29]: 50
Pigweed, Palmer plant response rating (0 to 100 scale) [20, 30]: 20
Ragweed plant response rating (0-100) [21, 29]: 20
Ragweed plant response rating (0 to 100 scale) [21, 30]: 0
Ryegrass, Italian plant response rating (0-100) [22, 29]: 60
Ryegrass, Italian plant response rating (0 to 100 scale) [22, 30]: 0
Soybean plant response rating (0-100) (soybean (Glycine max) [23]; [29]): 80
Soybean plant response rating (0 to 100 scale) (soybean (Glycine max) [23]; [30]): 50
Wheat plant response rating (0-100) [24, 29]: 90
Wheat plant response rating (0 to 100 scale) [24, 30]: 80
Plant response rating, Barnyardgrass (0 to 100 scale, 0 is no effect and 100 is complete control) [25]: 0
Plant response rating, Ducksalad (0 to 100 scale, 0 is no effect and 100 is complete control) [26]: 0
Plant response rating, Rice (0 to 100 scale, 0 is no effect and 100 is complete control) (rice (Oryza sativa)): 0
Plant response rating, Sedge, Umbrella (0 to 100 scale, 0 is no effect and 100 is complete control) [27]: 0
